The values that follow come from patent US20170119907A1, “Targeted Therapeutics” (MEDIVATION TECHNOLOGIES, INC., priority 2014, published 2017).

In data set [1] the test system is human MSCs. In words: Binding to human MSCs (visual inspection of staining). The following applies: 5 μM or 10 μM, 30 min; FIG. 4A. Format: cell-based. The method, then:
Human MSCs were incubated without Compound 4 or with Compound 4 (5 μM or 10 μM) for 30 min and then washed twice with 1 mL PBS. Samples were visually inspected to determine staining

Data set [2] relates to ARH-77 cells. Nature of the data set: Binding of compounds to ARH-77 cells (Example B1a). Format: cell-based. The following applies: photomicrographs, FIG. 2A.
In data set [3] the test system is partial thickness chondral defects in the medial femoral condyle. In words: Chondral defect model, retention of Compound 4-augmented MSCs (histological cell retention score). The format is in vivo, sheep. The following applies: for Cell Retention (average score, n = 5): score 0-2. As for the experimental part: The capacity of ovine MSCs derived from bone marrow and augmented with Compound 4 to bind to lesions in cartilage in vivo was evaluated in a chondral defect model.
Bone marrow aspirate was collected from fifteen healthy nave female sheep and processed in vitro to attain a population of mesenchymal stem cells (MSCs) for each sheep created by expansion of adherent cells. MSCs were frozen at passage 1 (P1).
Two circular partial thickness chondral defects were surgically created bilaterally in the medial femoral condyle of each sheep, thereby creating four defects per sheep. Once the medial femoral condyle was surgically exposed, two partial thickness circular defects were created in the cartilage of the anterior aspect, separated by 2-3 mm. Each defect was created by penetrating the cartilage with a 7 mm diameter biopsy punch to delineate the margins followed by removal of cartilage within the defect margin with a scalpel to a depth of approximately 0.5 mm-0.8 mm without penetrating the surface of the calcified cartilage. Within the same animal, each defect received one of four experimental treatments: • a. D1: Empty Control: defect left unfilled; • b. D2: Vehicle Control: cells incubated in PBS delivered to the defect; • c. D3: 100 μM Compound 4 incubated in defect followed by delivery of cells to the defect; and • d. D4: Cells were incubated with 10 μM Compound 4 for 30 min and together they were delivered to defect.
Sheep were divided into three groups of 5 sheep. One group was sacrificed on day 1 after surgery, the second group was sacrificed on day 7, and the third group was sacrificed on day 14 after surgery.
The complete intact joint was harvested and transported to the laboratory. The joint was exposed, and defects were scored macroscopically prior to separating out bone blocks containing the defects with a band saw. Defects were further trimmed and individually separated using a fine ISOMET® saw prior to fixation in 10% neutral buffered formalin. Tissue was further trimmed for histological processing, fixed, and decalcified for at least one week.
As each sample completed decalcification, it was transferred to 40% EtOH until all samples were decalcified and the last sample had been in 40% EtOH for at least 24 hours.
Following decalcification, specimens were prepared for histology staining with safranin-orange, fast green and haematoxylin-eosin.
Histological Assessment of Compound 4-Augmented Cell Retention
Histological slides were stained with Haematoxylin & Eosin and Safranin Orange for evaluation of cell retention and the early stages of cartilage repair. Cell retention was assessed using the following scoring system: […]

The test system of data set [4] is human MSCs. Nature of the data set: Human MSC proliferation, CELLTITER GLO assay (ATP levels). The format is cell-based. The following applies: 24 h, various concentrations, compared with untreated cells; FIG. 3A. As for the experimental part: This example reports the effects of 24 hour treatment with Compound 4 on viability and proliferation of human MSCs.
Cell proliferation was measured using the CELLTITER GLO® assay (Promega), which measures ATP levels. Cells (5×10^5) were incubated with various concentrations of Compound 4 for 24 h. Proliferation was compared to that of untreated cells. Proliferation values for 24 h were normalized to time=0 and compared with values for untreated cells.
In general terms: Cellular ATP, detected with luciferase, serves as a proxy for viable cell number.

The test system of data set [5] is human MSCs. In words: Viability and proliferation of human MSCs in the presence of compound (Example B2). The format is cell-based. The following applies: concentrations of 20 μM or below.
For data set [6], the system named is human MSCs. Nature of the data set: Human MSC viability, trypan blue staining. The following applies: 30 min, concentrations 20 μM or lower, FIG. 3B. The format is cell-based. As for the experimental part: (§1) Cell viability was measured by using trypan blue to stain dead cells. Cells (2×10^5) were incubated with various concentrations of Compound 4 for 30 min, and viable cells were counted and compared to the number of viable cells in an untreated sample. Values for treated cells were normalized to untreated cells.

For data set [7], the system named is ARH-77 cells. Nature of the data set: Binding to ARH-77 cells (fluorescence staining). Format: cell-based. The following applies: 10 μM, 30 min; 530 nm/600 nm filter set; FIG. 2A. As for the experimental part: ARH-77 cells (an EBV-transformed B lymphoblastoid cell line established from cells of a patient with plasma cell leukemia) were incubated as indicated with PBS or 10 μM Compound 4 for 30 min. Cells were washed twice with 1 mL PBS, and staining was detected using a 530 nm/600 nm filter set on a Molecular Imaging Gel Logic system.

The subject of a further data set is Raji cells. In words: Raji cell viability, trypan blue staining. The format is cell-based. Conditions: times and concentrations tested (at or below 20 μM), FIG. 3C. As for the experimental part: as §1
In a similar fashion to Example B2a, Compound 20 was assessed for its effect on viability of Raji cells as determined by trypan blue staining, as described in Example B2a.

As to `Cc1cc2nc3cc(C)c(NCCCCCCCCNc4cc5c(cc4C)nc4cc(C)c(N)cc4[n+]5-c4ccccc4)cc3[n+](-c3ccccc3)c2cc1N.[Cl-].[Cl-]` [Compound 4, 7,7′-(octane-1,8-diylbis(azanediyl))bis(3-amino-2,8-dimethyl-5-phenylphenazin-5-ium) chloride], in the data set with human MSCs [1], the “Binding to human MSCs (visual staining)” value is given as “binds human MSCs”. Moreover, the “binding to ARH-77 cells” value is listed as “binding” in the data set on ARH-77 cells [2] and “binds to ARH-77 cells” in the data set on ARH-77 cells [7]. Besides, the “Cell Retention (average score, n = 5)” value stood at 0.75 in data set [3] (D3: 100 μM incubated in defect followed by delivery of cells, Day 1); 0.75 in data set [3] (D3: 100 μM incubated in defect followed by delivery of cells, Day 7); 1.2 in data set [3] (D3: 100 μM incubated in defect followed by delivery of cells, Day 14); 0.4 in data set [3] (D4: cells pre-incubated with 10 μM for 30 min, then delivered to defect, Day 1); 1.0 in data set [3] (D4: cells pre-incubated with 10 μM for 30 min, then delivered to defect, Day 7); 1.25 in data set [3] (D4: cells pre-incubated with 10 μM for 30 min, then delivered to defect, Day 14). Moreover, in data set [3] (sheep chondral defect model, summary of Table B9), the “MSC retention (in words)” value is given as “promotes MSC retention”. The “Effect on human MSC proliferation” value with human MSCs [4] is “does not affect human MSC proliferation”. Further, the “proliferation of human MSCs” value with human MSCs [5] (FIG. 3A) is reported as “do not affect”. In addition, the “viability of human MSCs relative to untreated human MSCs” value with human MSCs [5] (FIG. 3B) is recorded as “do not affect”. In addition, in the data set with human MSCs [6], the “Effect on viability of human MSCs” value is “did not affect the viability”.

Take `Cc1cc2nc3cc(C)c(NCCCCCCNC(=O)c4ccc(-c5ccc(C(=O)NCCCCCCNc6cc7c(cc6C)nc6cc(C)c(N)cc6[n+]7-c6ccccc6)cc5)cc4)cc3[n+](-c3ccccc3)c2cc1N.[Cl-].[Cl-]` [Compound 20, (3-amino-7-{[6-({4-[4-({6-[(7-amino-5-chloranuide-2,8-dimethyl-5-phenyl-5λ^6,10-phenazin-5-ylium-3-yl)amino]hexyl}carbamoyl)phenyl]phenyl}formamido)hexyl]amino}-2,8-dimethyl-5-phenyl-5λ^6,10-phenazin-5-ylium-5-e)chloranuide]: in the data set with Raji cells, the “Toxic effects on Raji cells (viability)” value is “did not have toxic effects”.
